ChEMBL document CHEMBL5104095, “Proteolysis targeting chimera (PROTAC) in drug discovery paradigm: Recent progress and future challenges” (Eur J Med Chem, 2021)
Each block holds one compound with its values, some of them ahead of it.

Key:
[1] = target: T1, Protein cereblon/Tyrosine-protein kinase BTK (Homo sapiens, UniProt Q06187+Q96SW2); assay: PROTAC activity at CRBN/BTK in human MINO cells assessed as reduction in BTK level incubated for 24 hrs by Western blot analysis relative to control; assay type: cell-based
Target sequence in this assay (Q06187 2-659 limits assumed): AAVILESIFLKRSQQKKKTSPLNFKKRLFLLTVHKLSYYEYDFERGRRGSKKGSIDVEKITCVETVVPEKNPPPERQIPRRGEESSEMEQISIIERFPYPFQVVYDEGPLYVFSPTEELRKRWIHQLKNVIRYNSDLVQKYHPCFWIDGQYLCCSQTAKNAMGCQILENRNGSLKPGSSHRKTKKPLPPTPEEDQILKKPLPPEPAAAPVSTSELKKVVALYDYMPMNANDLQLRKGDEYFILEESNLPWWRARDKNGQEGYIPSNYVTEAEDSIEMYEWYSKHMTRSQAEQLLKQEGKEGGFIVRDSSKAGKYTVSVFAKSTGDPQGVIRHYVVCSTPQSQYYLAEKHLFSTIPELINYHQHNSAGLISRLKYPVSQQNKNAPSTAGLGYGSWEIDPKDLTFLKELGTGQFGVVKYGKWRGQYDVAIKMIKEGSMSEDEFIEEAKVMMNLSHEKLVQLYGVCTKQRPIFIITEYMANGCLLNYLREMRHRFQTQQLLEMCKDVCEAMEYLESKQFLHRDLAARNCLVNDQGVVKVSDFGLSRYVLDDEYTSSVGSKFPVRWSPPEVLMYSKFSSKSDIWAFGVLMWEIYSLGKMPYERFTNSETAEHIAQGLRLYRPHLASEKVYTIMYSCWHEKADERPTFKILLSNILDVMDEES
Target sequence in this assay (Q96SW2 whole entry partner): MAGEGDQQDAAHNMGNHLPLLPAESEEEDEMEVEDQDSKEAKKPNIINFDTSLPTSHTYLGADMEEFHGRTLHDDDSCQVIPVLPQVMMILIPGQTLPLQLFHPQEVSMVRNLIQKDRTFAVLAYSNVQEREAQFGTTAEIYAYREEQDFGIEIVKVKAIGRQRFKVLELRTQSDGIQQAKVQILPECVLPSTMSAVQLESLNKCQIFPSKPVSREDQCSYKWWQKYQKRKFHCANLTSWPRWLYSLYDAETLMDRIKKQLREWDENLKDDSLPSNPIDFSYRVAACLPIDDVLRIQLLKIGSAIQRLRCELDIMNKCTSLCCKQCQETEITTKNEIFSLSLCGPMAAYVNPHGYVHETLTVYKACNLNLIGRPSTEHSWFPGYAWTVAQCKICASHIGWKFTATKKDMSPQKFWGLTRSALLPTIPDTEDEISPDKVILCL

[2] = target: T1, Protein cereblon/Tyrosine-protein kinase BTK; assay: PROTAC activity at CRBN/BTK in human MINO cells assessed as reduction in BTK level incubated for 24 hrs by Western blot analysis; assay type: cell-based
Target sequence in this assay (Q06187 whole entry): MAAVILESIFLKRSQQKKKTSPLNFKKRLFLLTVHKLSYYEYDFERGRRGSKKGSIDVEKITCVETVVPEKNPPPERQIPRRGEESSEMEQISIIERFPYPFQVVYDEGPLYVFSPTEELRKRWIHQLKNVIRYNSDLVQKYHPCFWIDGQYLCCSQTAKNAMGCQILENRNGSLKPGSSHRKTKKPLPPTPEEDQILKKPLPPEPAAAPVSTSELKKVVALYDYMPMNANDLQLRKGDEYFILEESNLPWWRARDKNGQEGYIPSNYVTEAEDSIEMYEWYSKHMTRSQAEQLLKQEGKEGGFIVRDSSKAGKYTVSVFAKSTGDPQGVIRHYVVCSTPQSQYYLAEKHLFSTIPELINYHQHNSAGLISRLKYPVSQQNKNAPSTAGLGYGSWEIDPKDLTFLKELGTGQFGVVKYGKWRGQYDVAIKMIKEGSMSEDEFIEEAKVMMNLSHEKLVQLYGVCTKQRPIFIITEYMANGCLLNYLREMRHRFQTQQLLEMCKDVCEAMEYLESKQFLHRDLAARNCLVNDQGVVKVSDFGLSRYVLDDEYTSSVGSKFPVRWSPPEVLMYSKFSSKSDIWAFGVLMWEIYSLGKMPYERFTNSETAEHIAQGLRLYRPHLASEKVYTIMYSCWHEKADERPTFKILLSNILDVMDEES
Target sequence in this assay (Q96SW2 whole entry): as the sequence (Q96SW2 whole entry partner) above

[3] = target: Alpha-1A adrenergic receptor (Homo sapiens, UniProt P35348); assay: PROTAC activity at CRBN/A1AR in human HEK293 cells assessed as induction of A1AR degradation incubated for 12 hrs by Western blot analysis; assay type: cell-based
PC-3 = assay: Antiproliferative activity against human PC-3 cells assessed as inhibition of cell proliferation incubated for 48 hrs by CCK8 assay; assay type: functional, cell-based; settings: PC-3, 48 h
[4] = target: Protein cereblon/Adenosine receptor A1 (Homo sapiens) (UniProt P30542+Q96SW2); assay: PROTAC activity at CRBN/A1AR in human HEK293 cells assessed as induction of A1AR degradation at 10 micromol/L incubated for 12 hrs by Western blot analysis relative to control; assay type: cell-based; settings: dose 10.0 µmol/L
[5] = target: von Hippel-Lindau disease tumor suppressor/Barrier-to-autointegration factor (Homo sapiens, UniProt O75531+P40337); assay: PROTAC activity at VHL/BAF in human MV4-11 cells assessed as induction of BAF degradation incubated for 18 hrs by Western blot analysis; assay type: cell-based
Chain of von Hippel-Lindau disease tumor suppressor/Barrier-to-autointegration factor (P40337 whole entry): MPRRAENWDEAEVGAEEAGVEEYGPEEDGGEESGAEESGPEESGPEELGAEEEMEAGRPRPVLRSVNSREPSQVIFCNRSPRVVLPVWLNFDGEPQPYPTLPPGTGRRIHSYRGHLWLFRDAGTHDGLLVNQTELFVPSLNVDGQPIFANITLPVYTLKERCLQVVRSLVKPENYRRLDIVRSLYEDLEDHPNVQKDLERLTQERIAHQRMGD
Chain of von Hippel-Lindau disease tumor suppressor/Barrier-to-autointegration factor (O75531 whole entry): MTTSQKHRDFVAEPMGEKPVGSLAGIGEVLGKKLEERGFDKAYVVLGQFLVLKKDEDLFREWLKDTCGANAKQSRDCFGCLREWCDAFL

[6] = target: von Hippel-Lindau disease tumor suppressor/Barrier-to-autointegration factor (Homo sapiens) (UniProt P40337+O75531); assay: PROTAC activity at VHL/BAF in human MV4-11 cells assessed as induction of BAF degradation incubated for 18 hrs by Western blot analysis relative to control; assay type: cell-based
[7] = target: BRD4/E3 ubiquitin-protein ligase Mdm2 (Homo sapiens) (UniProt Q00987+O60885); assay: PROTAC activity at MDM2/BRD4 in human HCT-116 cells assessed as induction of BRD4 degradation incubated for 24 hrs by immunoblot analysis relative to control; assay type: cell-based
Chain of BRD4/E3 ubiquitin-protein ligase Mdm2 (Homo sapiens) (Q00987 whole entry, looked up, other chains not shown): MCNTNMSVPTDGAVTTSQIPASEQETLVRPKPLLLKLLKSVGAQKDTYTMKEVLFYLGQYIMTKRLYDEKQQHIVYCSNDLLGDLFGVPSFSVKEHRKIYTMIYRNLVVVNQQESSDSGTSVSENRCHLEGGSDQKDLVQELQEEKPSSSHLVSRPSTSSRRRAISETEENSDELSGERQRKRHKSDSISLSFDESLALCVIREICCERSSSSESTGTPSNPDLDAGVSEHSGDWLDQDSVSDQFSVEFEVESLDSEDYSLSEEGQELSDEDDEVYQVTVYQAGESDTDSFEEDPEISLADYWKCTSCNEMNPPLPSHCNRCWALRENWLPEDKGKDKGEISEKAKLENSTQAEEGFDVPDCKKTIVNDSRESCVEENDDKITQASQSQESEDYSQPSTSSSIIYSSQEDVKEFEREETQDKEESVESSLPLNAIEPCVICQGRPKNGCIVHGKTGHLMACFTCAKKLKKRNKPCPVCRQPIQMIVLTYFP

[8] = target: BRD4/E3 ubiquitin-protein ligase Mdm2 (Homo sapiens, UniProt O60885+Q00987); assay: PROTAC activity at MDM2/BRD4 in human HCT-116 cells assessed as induction of BRD4 degradation incubated for 24 hrs by immunoblot analysis; assay type: cell-based
Chain of BRD4/E3 ubiquitin-protein ligase Mdm2 (Q00987 whole entry, looked up, other chains not shown): as above

[9] = target: T2, Protein cereblon/Retinal rod rhodopsin-sensitive cGMP 3',5'-cyclic phosphodiesterase subunit delta (Homo sapiens, UniProt O43924+Q96SW2); assay: PROTAC activity at CRBN/PDEdelta in human PancTu-I assessed as induction of PDEdelta degradation incubated for 24 hrs by immunoblot analysis relative to control; assay type: cell-based
Target sequence in this assay (O43924 whole entry, looked up): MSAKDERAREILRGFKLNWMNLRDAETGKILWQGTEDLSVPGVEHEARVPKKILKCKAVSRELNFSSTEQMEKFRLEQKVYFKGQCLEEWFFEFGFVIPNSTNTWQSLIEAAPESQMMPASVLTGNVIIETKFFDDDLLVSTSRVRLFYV
Target sequence in this assay (Q96SW2 whole entry, looked up): as the sequence (Q96SW2 whole entry partner) above

[10] = target: T2, Protein cereblon/Retinal rod rhodopsin-sensitive cGMP 3',5'-cyclic phosphodiesterase subunit delta; assay: PROTAC activity at CRBN/PDEdelta in human PancTu-I assessed as induction of PDEdelta degradation incubated for 24 hrs by immunoblot analysis; assay type: cell-based
Target sequence in this assay (O43924 whole entry): as the sequence (O43924 whole entry, looked up) above
Target sequence in this assay (Q96SW2 whole entry): as the sequence (Q96SW2 whole entry partner) above

[11] = target: von Hippel-Lindau disease tumor suppressor/Cyclin-dependent kinase 4 (Homo sapiens, UniProt P11802+P40337); assay: PROTAC activity at VHL/CDK4 in human MM1.S cells assessed as induction of […] degradation incubated for 16 hrs by Western blot analysis; assay type: cell-based
[12] = target: von Hippel-Lindau disease tumor suppressor/Cyclin-dependent kinase 6 (Homo sapiens, UniProt P40337+Q00534); assay: PROTAC activity at VHL/CDK6 in human MM1.S cells assessed as induction of CDK6 degradation incubated for 16 hrs by Western blot analysis; assay type: cell-based
[13] = target: von Hippel-Lindau disease tumor suppressor/Cyclin-dependent kinase 6 (Homo sapiens) (UniProt Q00534+P40337); assay: PROTAC activity at VHL/CDK6 in human MM1.S cells assessed as induction of CDK6 degradation at 0.1 to 1 uM incubated for 16 hrs by Western blot analysis relative to control; assay type: cell-based; settings: dose 0.1-1 µM
Protein cereblon-NS3 = Protein cereblon-NS3 (Hepacivirus hominis, UniProt A3EZJ3+Q96SW2); assay: PROTAC activity at CRBN/NS3 of HCV assessed as induction of NS3-eGFP-2A-mCherry degradation incubated for 4 hrs by flow cytometry
[14] = target: Protein cereblon/Tyrosine-protein kinase BTK (Homo sapiens, UniProt Q06187+Q96SW2, C481S); assay: PROTAC activity at CRBN/BTK C481S mutant transfected in human HeLa cells assessed as induction of BTK C481S degradation incubated for 4 days by immunoblot analysis; assay type: cell-based

- Emax [1]: 90%
- EC50 [2]: 10 nM
SMILES: Nc1ncnc2c1c(-c1ccc(Oc3ccccc3)cc1)nn2[C@H]1CCCN(C(=O)/C=C/CCCCOCCOCCOCCOCCOc2cccc3c2C(=O)N(C2CCC(=O)NC2=O)C3=O)C1 (stereo not given in full)

- EC50 [3]: 2860 nM
- IC50 (PC-3): 6120 nM
- Emax [4]: 94%
SMILES: COc1cc2nc(N3CCN(C(=O)c4cn(CCOCCOCCOCC(=O)Nc5cccc6c5C(=O)N(C5CCC(=O)NC5=O)C6=O)nn4)CC3)nc(N)c2cc1OC (stereo not given)

- EC50 [5]: < 32 nM
- Emax [6]: > 65%
SMILES: Cc1ncsc1-c1ccc(CNC(=O)[C@@H]2C[C@@H](O)CN2C(=O)[C@@H](NC(=O)C2(F)CC2)C(C)(C)C)c(OCCOc2ccc(CN3CCN(c4cc(-c5ccccc5O)nnc4N)CC3)cc2)c1

- Emax [7]: 98%
- EC50 [8]: 32 nM
SMILES: COc1cc(C(=O)NCCOCCOCCOCCNC(=O)C[C@@H]2N=C(c3ccc(Cl)cc3)c3c(sc(C)c3C)-n3c(C)nnc32)ccc1NC(=O)[C@@H]1N[C@@H](CC(C)(C)C)[C@](C#N)(c2ccc(Cl)cc2F)[C@H]1c1cccc(Cl)c1F

- Emax [9]: 85%
- EC50 [10]: 48 nM
SMILES: O=C1CCC(N2C(=O)c3cccc(NCCOCCOCCOCCOCCNC(=O)c4ccc(CN(CC5CCNCC5)S(=O)(=O)c5ccc(S(=O)(=O)N(Cc6ccc(Cl)cc6)C6CCCC6)cc5)cc4)c3C2=O)C(=O)N1 (stereo not given)

- Emax [1]: 97%
- EC50 [2]: 2.2 nM
SMILES: Nc1ncnc2c1c(-c1ccc(Oc3ccccc3)cc1)nn2[C@H]1CCCN(C(=O)CCCCCCOCCOCCOCCOCCOc2cccc3c2C(=O)N(C2CCC(=O)NC2=O)C3=O)C1 (stereo not given in full)

- Emax [1]: 90%
- EC50 [2]: 10 nM
SMILES: CC(C)(/C=C(\C#N)C(=O)N1CCC[C@H](n2nc(-c3ccc(Oc4ccccc4)cc3)c3c(N)ncnc32)C1)CCCOCCOCCOCCOCCOc1cccc2c1C(=O)N(C1CCC(=O)NC1=O)C2=O (stereo not given in full)

- EC50 [11]: 20 nM
- EC50 [12]: 5.1 nM
- Emax [13]: > 95%
SMILES: CC(=O)c1c(C)c2cnc(Nc3ccc(N4CCN(CCOCCOCCOc5cc(-c6scnc6C)ccc5CNC(=O)[C@H]5C[C@H](O)CN5C(=O)[C@@H](NC(=O)C5(F)CC5)C(C)(C)C)CC4)cn3)nc2n(C2CCCC2)c1=O

- EC50 (Protein cereblon-NS3): 669 nM
SMILES: CCC[C@H](NC(=O)[C@@H]1[C@H]2CCC[C@H]2CN1C(=O)[C@@H](NC(=O)[C@@H](NC(=O)c1cnc(C(=O)NCCCCCCNc2cccc3c2CN(C2CCC(=O)NC2=O)C3=O)cn1)C1CCCCC1)C(C)(C)C)C(=O)C(=O)NC1CC1 (stereo not given in full)

SMILES: Nc1ncnc2c1c(-c1ccc(Oc3ccccc3)cc1)nn2[C@@H]1CCCN(C(=O)c2cn(CCOCCOCCOCCNc3cccc4c3C(=O)N(C3CCC(=O)NC3=O)C4=O)nn2)C1 (stereo not given in full)
- EC50 [14]: 30 nM
